Laboratory results reported in patent US12472189B2, “Treatment and prevention of capillary malformation-arteriovenous malformation” (The Regents of University of Michigan, priority 2020, dated 2025).
“Also recorded” adds a separate entry of the source.

Experiments:
[1] = test system: induced RASA1-deficient mice (Rasa1 fl/fl Ub ert2cre embryos); assay: Developmental angiogenesis in embryos with TM-induced disruption of Rasa1, drug co-administered; details: for EC export of collagen IV / deposition of collagen IV in vascular BM / blood vascular hemorrhage (and edema) / EC apoptosis (activated caspase 3): Rasa1 fl/fl Ub ert2cre embryos, TM at E13.5 with drug i.p. to pregnant mice, assessed at E18.5; for vascular development / vascular phenotypes, drug administered alone: Rasa1 fl/fl and Rasa1 fl/fl Ub ert2cre embryos, drug from E13.5 in the absence of TM; for vascular development / vascular phenotypes, drug administered alone / Embryonic vascular phenotypes / Percentage embryos with phenotype (affected/total): harvest E18.5; for Embryonic vascular phenotypes / Percentage embryos with phenotype (affected/total): TM day E13.5 plus drug
Experimental: Pregnant mice were given 3 i.p. injections of TM (Sigma; 0.05 mg/g body weight per injection, dissolved in corn oil) on consecutive days. The MEK inhibitor, AZD6244 (Selleckchem; 0.05 mg/g body weight per injection), the PI3K inhibitor, PX-866 (Cayman chemical; 0.015 mg/g body weight per injection), the chemical chaperone, 4PBA (Sigma; 0.25 mg/g body weight per injection), and the 2OG dependent oxygenase inhibitors, EDHB and 2,4PDCA (Sigma; 0.1 mg/g body weight per injection) were injected i.p. into mice at the same time as TM and the day following the last TM injection for AZD6244 and PX-866 or for all subsequent days of gestation until harvest for 4PBA, EDHB and 2,4PDCA. […] Embryos were fixed in 3.75% formaldehyde overnight and embedded in paraffin. Five micrometer sections were dehydrated and antigen retrieval was performed with a Diva de-cloaking kit (Biocare Medical). […] Secondary antibodies used were species-specific anti-immunoglobulin donkey F(ab)2 fragments coupled to Alexa Fluor 488, 594 or 647 (Jackson Immunoresearch) and were incubated with tissues in PBS for 2 hours. Sections were stained with Hoechst (Invitrogen) to identify nuclei before mounting and viewing on a BX60 upright fluorescence microscope (Nikon) or a Leica SP5 X confocal microscope (Leica Microsystems).

human and mouse EC = human and mouse EC in vitro; cited from earlier work
[2] = test system: mouse models that express these mutants; details: mouse models expressing point mutant collagen IV variants; cited from earlier work
B16 melanoma = assay: Tumor angiogenesis, B16 melanoma model in adult induced RASA1-deficient mice; type: in vivo, mouse; details: 13 days
Experimental: TM was administered to mice at 2 months of age (female mice for ID8 experiments and mice of either sex for B16 experiments). After 1 week, mice were injected s.c. in the flank with 1×10^6 ID8 cells or 0.75×10^6 B16F10 cells (provided by Weiping Zou, Michigan Medicine, Ann Arbor Michigan) suspended in 100 μl matrigel (Corning). In B16 experiments, 4PBA was administered to some mice at the same time as tumor and for each day thereafter (0.4 mg/g body weight per injection). ID8 and B16 tumors were harvested 6 weeks or 13 days later respectively and tumor weight and volume was determined as described (Kozak et al. Proc Natl Acad Sci USA. 2010; 107(46):19997-20002; incorporated by reference in its entirety). Tumors were fixed in 4% paraformaldehyde overnight and 5 μm sections were stained with Hoechst and antibodies against CD31, activated caspase 3 and collagen IV as above. Sections were viewed on a BX60 upright fluorescence microscope or a Leica SP5 X confocal microscope. BV density was assessed within a random 800 μm×800 μm region.

HUVEC = assay: RASA1 siRNA knockdown in HUVEC, intracellular collagen IV accumulation (immunofluorescence); type: cell-based, human; details: RASA1 siRNA-treated HUVEC, 2 mM 4PBA, 24 hours
Experimental: HUVEC from pooled donors (Lonza, CC-2519) were cultured in EBM™-2 Basal Medium (Lonza, CC-3156) supplemented with EGMm-2 SingleQuots™ Supplement Pack (Lonza, CC-4176). Cells were transfected with 50 nM RASA1 siRNA (5′-[…]-3′ (SEQ ID NO: 1), Invitrogen) using Lipofectamine RNAi MAX (Invitrogen) reagent according to the manufacturer's protocol. Stealth RNAi™ siRNA Negative Control Hi GC (Invitrogen) was used as control. Following transfection, HUVEC were recultured in the presence or absence of 2 mM 4PBA for 24 hours.
HUVECs were fixed with 4% paraformaldehyde in PBS for 30 minutes at room temperature washed in PBS, permeabilized with 0.2% Triton X-100, and blocked with 10% donkey serum for 1 hour. Cells were incubated with antibodies against collagen IV (1340-01, SouthemBiotech) and calnexin (PA5-34754, Thermo Fisher) overnight, followed by Alexa Fluor®488 or 594 conjugated secondary antibodies (Jackson ImmunoResearch) for 4 hours. Cells were stained with Hoechst to identify nuclei before mounting and viewing on a Leica SP5 X confocal microscope.

[3] = Rasa1 fl/fl littermates, Ert2Cre driver None
[4] = TM-treated Rasa1 fl/fl Ub ert2cre recipients, 4PBA daily from tumor injection

Structure (SMILES): Cn1cnc2c(F)c(Nc3ccc(Br)cc3Cl)c(C(=O)NOCCO)cc21 [AZD6244]
- EC export of collagen IV / deposition of collagen IV in vascular BM [1]: rescued; also recorded: normal deposition of collagen IV in vascular BM
- blood vascular hemorrhage (and edema) [1]: prevented; also recorded: absence of hemorrhage and edema
- vascular development / vascular phenotypes, drug administered alone [1]: did not induce any vascular abnormalities; also recorded: absence of vascular phenotypes
- Embryonic vascular phenotypes [1, 3]: None
- Percentage embryos with phenotype (affected/total) [1, 3]: 0 (0/8) Percentage
- Embryonic vascular phenotypes ([1]; Rasa1 fl/fl, Ert2Cre driver Ub): None
- Percentage embryos with phenotype (affected/total) ([1]; Rasa1 fl/fl, Ert2Cre driver Ub): 0 (0/7) Percentage

Structure (SMILES): O=C(O)c1ccnc(C(=O)O)c1 [2,4PDCA, 2,4 pyridinedicarboxylic acid]
- EC apoptosis (activated caspase 3) [1]: absence of BEC apoptosis
- EC export of collagen IV / deposition of collagen IV in vascular BM [1]: normal deposition of collagen IV in vascular BM
- blood vascular hemorrhage (and edema) [1]: absence of hemorrhage and edema
- Embryonic vascular phenotypes [1, 3]: None
- Percentage embryos with phenotype (affected/total) [1, 3]: 0 (0/6) Percentage
- Embryonic vascular phenotypes ([1]; Rasa1 fl/fl, Ert2Cre driver Ub): None
- Percentage embryos with phenotype (affected/total) ([1]; Rasa1 fl/fl, Ert2Cre driver Ub): 0 (0/3) Percentage

Structure (SMILES): C=CCN(/C=C1/C(=O)O[C@H](COC)[C@@]2(C)C1=C(O)C(=O)C1=C2[C@H](OC(C)=O)C[C@]2(C)C(=O)CC[C@@H]12)CC=C [PX-866]
- EC apoptosis (activated caspase 3) [1]: unable to rescue
- EC export of collagen IV / deposition of collagen IV in vascular BM [1]: unable to rescue
- blood vascular hemorrhage (and edema) [1]: extensive cutaneous hemorrhage was evident

Structure (SMILES): O=C(O)CCCc1ccccc1 [4PBA, 4-phenylbutyric acid]
- blocked export of misfolded point mutant collagen IV variants (human and mouse EC): rescued
- EC apoptosis (activated caspase 3) [1]: completely rescued; also recorded: absence of BEC apoptosis
- EC export of collagen IV / deposition of collagen IV in vascular BM [1]: completely rescued; also recorded: normal deposition of collagen IV in vascular BM
- blood vascular hemorrhage (and edema) [1]: completely rescued; also recorded: absence of hemorrhage and edema
- EC apoptosis (activated caspase 3) ([1]; listed as 4-phenylbutyric acid): rescued
- EC export of collagen IV / deposition of collagen IV in vascular BM ([1]; listed as 4-phenylbutyric acid): rescued
- vascular development / vascular phenotypes, drug administered alone [1]: no influence; also recorded: absence of vascular phenotypes
- Embryonic vascular phenotypes [1, 3]: None
- Percentage embryos with phenotype (affected/total) [1, 3]: 0 (0/5) Percentage
- Embryonic vascular phenotypes ([1]; Rasa1 fl/fl, Ert2Cre driver Ub): None
- Percentage embryos with phenotype (affected/total) ([1]; Rasa1 fl/fl, Ert2Cre driver Ub): 0 (0/7) Percentage
- intracerebral hemorrhage [2]: reversed
- B16 growth, 4PBA administered alone (B16 melanoma; Rasa1 fl/fl and Rasa1 fl/fl Ub ert2cre mice not previously injected with TM, 4PBA daily): no influence
- export of collagen IV from BEC and BV angiogenesis in B16 tumors (B16 melanoma; [4]): normal
- growth of B16 cells (tumor weight and volume) (B16 melanoma; [4]): restored
- B16 growth (B16 melanoma; TM-treated Rasa1 fl/fl control mice, 4PBA daily): no influence
- intracellular accumulation of collagen IV after RASA1 knockdown (HUVEC): rescue

Structure (SMILES): CCOC(=O)c1ccc(O)c(O)c1 [EDHB]
- EC apoptosis (activated caspase 3) [1]: completely rescued; also recorded: absence of BEC apoptosis
- EC export of collagen IV / deposition of collagen IV in vascular BM [1]: completely rescued; also recorded: normal deposition of collagen IV in vascular BM
- blood vascular hemorrhage (and edema) [1]: completely rescued; also recorded: absence of hemorrhage and edema
- Embryonic vascular phenotypes ([1]; Rasa1 fl/fl, Ert2Cre driver Ub): None
- Percentage embryos with phenotype (affected/total) ([1]; Rasa1 fl/fl, Ert2Cre driver Ub): 0 (0/5) Percentage
